Data taken from patent publication US9765381B2, “Mutated genes for the catalytic protein of oplophorus luciferase and use thereof” (JNC Corporation, priority 2013, dated 2017).

Test system: not listed separately
Experiment: Luminescence activity of amino-terminal deleted nanoKAZ and ZZ-fused amino-terminal deleted nanoKAZ in crude enzyme solution
Type: biochemical
Settings: ZZ-fused (pCold-ZZ-P- vector), expressed in E. coli BL21, crude enzyme solution, coelenterazine substrate, nanoKAZ = 100
Protocol: In order to express the amino-terminal deleted nanoKAZ in E. coli, the recombinant plasmid obtained in EXAMPLE 4 was used. The E. coli BL21 strain (Novagen, Madison, Wis.) was used as a host cell. The BL21 strain carrying the recombinant plasmid was incubated in 5 mL of Luria-Bertani medium (hereinafter designated as LB medium) containing ampicillin (50 μg/mL) at 37° C. for 18 hours. The seed culture of 0.1 mL was inoculated to 10 mL of LB medium and incubated for 3 hours, followed by cooling in an ice-water bath for 1 hour. IPTG was added to the culture medium at a final concentration of 0.1 mM, followed by incubation at 15° C. for further 17 hours. After completion of the incubation, 1 mL of the culture medium was collected by centrifugation at 10,000 rpm for 2 minutes. The collected E. coli cells were suspended in 0.5 mL of 30 mM Tris-HCl (pH 7.6)-10 mM EDTA (manufactured by Wako Pure Chemical Industries, Ltd.) (hereinafter designated as TE). The E. coli cells were disrupted by sonication for 3 seconds using a Branson model 250 sonifire (Danbury, Conn.) to give a crude enzyme solution. Then, 5 μL of the crude enzyme solution was analyzed by SDS-PAGE to confirm the protein expression (FIG. 1).
To express the ZZ-fused amino-terminal deleted nanoKAZ in E. coli, the recombinant plasmid obtained in EXAMPLE 6 was used. Crude enzyme solutions were prepared using a similar manner to EXAMPLE 5 using the E. coli BL21 strain (Novagen, Madison, Wis.) as a host cell. Then, 5 μL of the crude enzyme solution obtained was subjected to SDS-PAGE analysis to confirm the protein expression (FIG. 2).
The crude enzyme solutions obtained in EXAMPLE 5 and EXAMPLE 7 were allowed to stand in an ice-water for over 1 hour and then diluted to 50-fold in TE. By addition of 1 μL each of the crude enzyme solutions to 100 μL of TE containing 1 μg of coelenterazine (manufactured by JNC Corp.), a luminescence reaction was started. The luminescence activity was measured for 60 seconds using a luminometer (manufactured by Atto AB2200); the maximum intensity of luminescence (Imax) is given as a percentage (%).

Molecule | Relative luminescence activity (%, Imax) pCold-ZZ-P- [%]
nanoKAZ: mutated 19 kDa catalytic protein of Oplophorus luciferase with 16 mutations, amino acid sequence SEQ ID NO: 2 [reference compound] | 100
ΔN2T-nKAZ: nanoKAZ (SEQ ID NO: 2) with deletion of the phenylalanine residue at the first amino acid; SEQ ID NO: 4 | 93.4
ΔN3L-nKAZ: nanoKAZ with 2 amino-terminal amino acids deleted; SEQ ID NO: 6 | 82.0
ΔN4E-nKAZ: nanoKAZ with 3 amino-terminal amino acids deleted; SEQ ID NO: 8 | 74.0
ΔN5D-nKAZ: nanoKAZ with 4 amino-terminal amino acids deleted; SEQ ID NO: 10 | 73.6

Same assay, conditions: pCold- vector, expressed in E. coli BL21, crude enzyme solution, coelenterazine substrate, nanoKAZ = 100

Molecule | Relative luminescence activity (%, Imax) pCold- [%]
nanoKAZ: mutated 19 kDa catalytic protein of Oplophorus luciferase with 16 mutations, amino acid sequence SEQ ID NO: 2 [reference compound] | 100
ΔN5D-nKAZ: nanoKAZ with 4 amino-terminal amino acids deleted; SEQ ID NO: 10 | 87.0

Test system: CHO-K1 cells
Experiment: Luminescence activity of amino-terminal deleted nanoKAZ expressed in animal cultured cells (culture medium and cell extracts)
Type: cell-based, Chinese hamster
Settings: lacking secretory signal peptide, CHO-K1, cell extracts, coelenterazine
Protocol: Chinese hamster ovary cell line CHO-K1 was cultured in Ha F-12 medium (manufactured by Wako Pure Chemical Industries, Ltd.) supplemented with 10% (v/v) fetal bovine serum (manufactured by Biowest Inc.) (hereinafter sometimes referred to as Ham's F-12 medium). The CHO-K1 cells were seeded in a 6-well plate in 1×10^5 cells/well/2 mL medium (n=2) and cultured in an incubator at 37° C. in 5% (v/v) CO2. After 24 hours, the purified recombinant plasmid was transfected to CHO-K1 cells using a FuGene HD transfection kit (manufactured by Promega Corp.) and the cells were provided for subsequent experiment. Specifically, 1 μg of the recombinant plasmid, 0.1 μg of the internal standard vector pGL4.13 [Luc2/sv40] and 3 μL of FuGene HD were added to 100 μL of the medium and allowed to stand at room temperature for 15 minutes. Subsequently, 100 μL, of the DNA-FuGene complex was added to the cells in the 6-well plate. After incubation for 44 hours, the culture medium was collected. On the other hand, the cells expressed the KAZ mutants were washed 3 times with 3 mL of 1×PBS, then suspended in 1 mL of 1×PBS and disrupted by sonication on ice. The resultant cell extracts of nanoKAZ deletion mutants was used as enzyme solutions.
Culture media containing the secreted amino-terminal deleted nanoKAZ and cell extracts of amino-terminal deleted nanoKAZ as the enzyme solutions were prepared in the same manner as in EXAMPLE 10.
After adding of 5 μL each of the culture media and cell extracts obtained in EXAMPLE 10 and EXAMPLE 12, respectively, to 100 μL of TE containing 1 μg of coelenterazine (manufactured by JNC Corp.), a luminescence reaction was started. The luminescence activity was measured for 60 seconds using a luminometer (manufactured by Atto Inc.: AB2200), and the maximum intensity of luminescence (Imax) was given as a percentage (%).

Molecule | Relative luminescence activity (%, Imax) pcDNA3- Cell extracts [%]
nanoKAZ: mutated 19 kDa catalytic protein of Oplophorus luciferase with 16 mutations, amino acid sequence SEQ ID NO: 2 [reference compound] | 29.4
ΔN2T-nKAZ: nanoKAZ (SEQ ID NO: 2) with deletion of the phenylalanine residue at the first amino acid; SEQ ID NO: 4 | 23.3
ΔN3L-nKAZ: nanoKAZ with 2 amino-terminal amino acids deleted; SEQ ID NO: 6 | 16.2
ΔN4E-nKAZ: nanoKAZ with 3 amino-terminal amino acids deleted; SEQ ID NO: 8 | 9.7
ΔN5D-nKAZ: nanoKAZ with 4 amino-terminal amino acids deleted; SEQ ID NO: 10 | 1.5

Same assay, conditions: lacking secretory signal peptide, CHO-K1, culture medium, coelenterazine

Molecule | Relative luminescence activity (%, Imax) pcDNA3- Culture medium [%]
nanoKAZ: mutated 19 kDa catalytic protein of Oplophorus luciferase with 16 mutations, amino acid sequence SEQ ID NO: 2 [reference compound] | 100
ΔN2T-nKAZ: nanoKAZ (SEQ ID NO: 2) with deletion of the phenylalanine residue at the first amino acid; SEQ ID NO: 4 | 93.4
ΔN3L-nKAZ: nanoKAZ with 2 amino-terminal amino acids deleted; SEQ ID NO: 6 | 50.6
ΔN4E-nKAZ: nanoKAZ with 3 amino-terminal amino acids deleted; SEQ ID NO: 8 | 4.6
ΔN5D-nKAZ: nanoKAZ with 4 amino-terminal amino acids deleted; SEQ ID NO: 10 | 0.1

Same assay, conditions: with Gaussia luciferase secretory signal peptide, CHO-K1, cell extracts, coelenterazine

Molecule | Relative luminescence activity (%, Imax) pcDNA3-GLsp- Cell extracts [%]
nanoKAZ: mutated 19 kDa catalytic protein of Oplophorus luciferase with 16 mutations, amino acid sequence SEQ ID NO: 2 [reference compound] | 4.8
ΔN2T-nKAZ: nanoKAZ (SEQ ID NO: 2) with deletion of the phenylalanine residue at the first amino acid; SEQ ID NO: 4 | 3.4
ΔN3L-nKAZ: nanoKAZ with 2 amino-terminal amino acids deleted; SEQ ID NO: 6 | 4.4
ΔN4E-nKAZ: nanoKAZ with 3 amino-terminal amino acids deleted; SEQ ID NO: 8 | 2.9
ΔN5D-nKAZ: nanoKAZ with 4 amino-terminal amino acids deleted; SEQ ID NO: 10 | 1.7

Same assay, conditions: with Gaussia luciferase secretory signal peptide, CHO-K1, culture medium, coelenterazine

Molecule | Relative luminescence activity (%, Imax) pcDNA3-GLsp- Culture medium [%]
nanoKAZ: mutated 19 kDa catalytic protein of Oplophorus luciferase with 16 mutations, amino acid sequence SEQ ID NO: 2 [reference compound] | 100
ΔN2T-nKAZ: nanoKAZ (SEQ ID NO: 2) with deletion of the phenylalanine residue at the first amino acid; SEQ ID NO: 4 | 97.0
ΔN3L-nKAZ: nanoKAZ with 2 amino-terminal amino acids deleted; SEQ ID NO: 6 | 87.7
ΔN4E-nKAZ: nanoKAZ with 3 amino-terminal amino acids deleted; SEQ ID NO: 8 | 60.5
ΔN5D-nKAZ: nanoKAZ with 4 amino-terminal amino acids deleted; SEQ ID NO: 10 | 56.2

Test system: not listed separately
Experiment: Substrate specificities for amino-terminal deleted nanoKAZ
Type: biochemical
Settings: as luminescence substrate of the luciferase mutant, general description
Protocol: The enzyme solutions of amino-terminal deleted nanoKAZ used for substrate specificity studies were prepared by the method described in EXAMPLE 12, using pcDNA3 vectors (pcDNA3-ΔN2T-nKAZ, pcDNA3-ΔN3L-nKAZ, pcDNA3-ΔN4E-nKAZ, pcDNA3-ΔN5D-nKAZ and pcDNA3-ΔN6F-nKAZ) for expression of the amino-terminal deletions, which were obtained by the method described in EXAMPLE 11. After transfection to CHO-K1 cells and then incubation for 48 hours, the culture medium were collected and stored in a frozen state. The coelenterazine analogues used for substrate specificity studies were synthesized by the methods described in publications, respectively. Specifically, coelenterazine (CTZ), h-coelenterazine (h-CTZ) and f-coelenterazine (f-CTZ), 6h-f-coelenterazine (6h-f-CTZ) were synthesized by the method described in Inouye et al (2013) Biochem. Biophys. Res. Commun. 437: 23-28, and bis-coelenterazine (bis-CTZ) was synthesized by the method described in Nakamura et al, (1997) Tetrahedron Lett. 38: 6405-6406.
A luminescence reaction was started by the addition of 2 μL of the freeze-thawed culture medium on ice to 100 μL of TE containing 1 μg of coelenterazine or its analogue. The luminescence activities were measured for 10 seconds using a luminometer (manufactured by Atto Inc.: AB2200), and the maximum intensity of luminescence (Imax) of nanoKAZ was shown as a relative luminescence activity using coelenterazine as a substrate.

Molecule | luminescence activity higher than that of coelenterazine
O=c1c(Cc2ccc(F)cc2)nc2c(Cc3ccccc3)[nH]c(-c3ccccc3)cn1-2 [6h-f-coelenterazine, reference compound] | approximately 10 times
O=c1c(Cc2ccc(F)cc2)nc2c(Cc3ccccc3)[nH]c(-c3ccc(O)cc3)cn1-2 [f-CTZ, f-coelenterazine, reference compound] | 10 times
Oc1ccc(-c2cn3c(O)c(Cc4ccccc4)nc3c(Cc3ccccc3)n2)cc1 [h-CTZ, h-coelenterazine, reference compound] | 10 times
bis-coelenterazine [reference compound] | approximately 10 times

Same assay, conditions: substrate 6h-f-coelenterazine; relative to nanoKAZ with CTZ

Molecule | Relative luminescence activity (Imax) 6h-f-CTZ
nanoKAZ: mutated 19 kDa catalytic protein of Oplophorus luciferase with 16 mutations, amino acid sequence SEQ ID NO: 2 [reference compound] | 7.00
ΔN2T-nKAZ: nanoKAZ (SEQ ID NO: 2) with deletion of the phenylalanine residue at the first amino acid; SEQ ID NO: 4 | 8.02
ΔN3L-nKAZ: nanoKAZ with 2 amino-terminal amino acids deleted; SEQ ID NO: 6 | 5.25
ΔN4E-nKAZ: nanoKAZ with 3 amino-terminal amino acids deleted; SEQ ID NO: 8 | 0.36
ΔN5D-nKAZ: nanoKAZ with 4 amino-terminal amino acids deleted; SEQ ID NO: 10 | 0.01

Same assay, conditions: substrate bis-coelenterazine; relative to nanoKAZ with CTZ

Molecule | Relative luminescence activity (Imax) bis-CTZ
nanoKAZ: mutated 19 kDa catalytic protein of Oplophorus luciferase with 16 mutations, amino acid sequence SEQ ID NO: 2 [reference compound] | 6.93
ΔN2T-nKAZ: nanoKAZ (SEQ ID NO: 2) with deletion of the phenylalanine residue at the first amino acid; SEQ ID NO: 4 | 8.99
ΔN3L-nKAZ: nanoKAZ with 2 amino-terminal amino acids deleted; SEQ ID NO: 6 | 5.39
ΔN4E-nKAZ: nanoKAZ with 3 amino-terminal amino acids deleted; SEQ ID NO: 8 | 0.35
ΔN5D-nKAZ: nanoKAZ with 4 amino-terminal amino acids deleted; SEQ ID NO: 10 | 0.01

Same assay, conditions: substrate coelenterazine (CTZ); culture medium of CHO-K1, pcDNA3 vectors; nanoKAZ with CTZ = 1.00

Molecule | Relative luminescence activity (Imax) CTZ
nanoKAZ: mutated 19 kDa catalytic protein of Oplophorus luciferase with 16 mutations, amino acid sequence SEQ ID NO: 2 [reference compound] | 1.00
ΔN2T-nKAZ: nanoKAZ (SEQ ID NO: 2) with deletion of the phenylalanine residue at the first amino acid; SEQ ID NO: 4 | 1.03
ΔN3L-nKAZ: nanoKAZ with 2 amino-terminal amino acids deleted; SEQ ID NO: 6 | 0.50
ΔN4E-nKAZ: nanoKAZ with 3 amino-terminal amino acids deleted; SEQ ID NO: 8 | 0.05
ΔN5D-nKAZ: nanoKAZ with 4 amino-terminal amino acids deleted; SEQ ID NO: 10 | 0.01

Same assay, conditions: substrate f-coelenterazine; relative to nanoKAZ with CTZ

Molecule | Relative luminescence activity (Imax) f-CTZ
nanoKAZ: mutated 19 kDa catalytic protein of Oplophorus luciferase with 16 mutations, amino acid sequence SEQ ID NO: 2 [reference compound] | 12.65
ΔN2T-nKAZ: nanoKAZ (SEQ ID NO: 2) with deletion of the phenylalanine residue at the first amino acid; SEQ ID NO: 4 | 15.04
ΔN3L-nKAZ: nanoKAZ with 2 amino-terminal amino acids deleted; SEQ ID NO: 6 | 9.88
ΔN4E-nKAZ: nanoKAZ with 3 amino-terminal amino acids deleted; SEQ ID NO: 8 | 0.70
ΔN5D-nKAZ: nanoKAZ with 4 amino-terminal amino acids deleted; SEQ ID NO: 10 | 0.02

Same assay, conditions: substrate h-coelenterazine; relative to nanoKAZ with CTZ

Molecule | Relative luminescence activity (Imax) h-CTZ
nanoKAZ: mutated 19 kDa catalytic protein of Oplophorus luciferase with 16 mutations, amino acid sequence SEQ ID NO: 2 [reference compound] | 11.76
ΔN2T-nKAZ: nanoKAZ (SEQ ID NO: 2) with deletion of the phenylalanine residue at the first amino acid; SEQ ID NO: 4 | 13.38
ΔN3L-nKAZ: nanoKAZ with 2 amino-terminal amino acids deleted; SEQ ID NO: 6 | 9.39
ΔN4E-nKAZ: nanoKAZ with 3 amino-terminal amino acids deleted; SEQ ID NO: 8 | 0.58
ΔN5D-nKAZ: nanoKAZ with 4 amino-terminal amino acids deleted; SEQ ID NO: 10 | 0.01

Same assay, conditions: substrates bis-CTZ, 6h-f-CTZ, h-CTZ and f-CTZ

Molecule | activity compared with nanoKAZ (in words)
ΔN2T-nKAZ: nanoKAZ (SEQ ID NO: 2) with deletion of the phenylalanine residue at the first amino acid; SEQ ID NO: 4 | higher activity than nanoKAZ
